pIC50, pKd: −log10 of the molar value.
What was measured:
Mus musculus [1] = assay: Antiallergic activity in C57BL/6 mouse assessed as reduction of HDM/CRA-induced chitinase activity in bronchoalveolar lavage fluid at 50 mg/kg, po administered twice daily; format: functional, C57BL6, Lung; set-up: scale not given: the % may be the effect or the level left
[2] = Inhibition of chitotriosidase after 60 mins
[3] = target: T1, Acidic mammalian chitinase (Homo sapiens, UniProt Q9BZP6); assay: Inhibition of acidic mammalian chitinase after 60 mins
[4] = target: T1, Acidic mammalian chitinase; assay: Binding affinity to biotinylated-acidic mammalian chitinase
Mus musculus [5] = assay: Antiallergic activity in C57BL/6 mouse assessed as reduction of HDM/CRA-induced chitinase activity in bronchoalveolar lavage fluid at 10 mg/kg, ip administered once daily; format: functional, C57BL6, Lung; set-up: scale not given: the % may be the effect or the level left; conditions: route intraperitoneal

T1 sequence (Q9BZP6 whole entry): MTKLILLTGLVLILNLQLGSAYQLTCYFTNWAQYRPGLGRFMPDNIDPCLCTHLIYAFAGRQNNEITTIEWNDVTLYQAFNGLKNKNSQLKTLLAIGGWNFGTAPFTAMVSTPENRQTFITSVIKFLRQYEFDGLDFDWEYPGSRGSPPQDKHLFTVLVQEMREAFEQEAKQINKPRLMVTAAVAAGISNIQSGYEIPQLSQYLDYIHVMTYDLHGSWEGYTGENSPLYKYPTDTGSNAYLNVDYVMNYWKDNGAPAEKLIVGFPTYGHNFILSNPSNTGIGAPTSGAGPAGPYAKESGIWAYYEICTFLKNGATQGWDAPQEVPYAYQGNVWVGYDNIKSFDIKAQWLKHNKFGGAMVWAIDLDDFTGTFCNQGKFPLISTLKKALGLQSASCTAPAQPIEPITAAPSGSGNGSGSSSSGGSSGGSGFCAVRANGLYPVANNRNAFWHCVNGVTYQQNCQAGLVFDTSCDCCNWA

Compound | pIC50 [2] | other results
Nc1n[nH]c(N2CCN(CCOc3ccc(Br)cc3)CC2)n1 | 5.37 | Activity (Mus musculus [1]): 43%
NC(=O)c1cccnc1N1CCNCC1 | 4.05 | pIC50 [3]: 3.99; pKd [4]: 3.85
C[C@@H]1C[C@H]2[C@@H]3CCC4=CC(=O)C=C[C@]4(C)[C@@]3(F)[C@@H](O)C[C@]2(C)[C@@]1(O)C(=O)CO [DEXAMETHASONE] |  | Activity (Mus musculus [5]): 60%

More lines, main results first:

pIC50 [2] | Compound | other results
5.87 | Cc1[nH]c2ccccc2c1CN1CCN(c2ccccn2)CC1 | 
< 4.00 | N=C(N)N1CCN(c2ccc(Cl)cc2)CC1 | 

— ChEMBL document CHEMBL1212885, “Identification and characterization of acidic mammalian chitinase inhibitors” (J Med Chem, 2010)
